Measured values as given in patent publication US12545659B2, “IRAK degraders and uses thereof” (Kymera Therapeutics, Inc., priority 2019, dated 2026).

Target: T1, IRAK4 (Homo sapiens, UniProt Q9NWZ3)
T1 construct: endogenous in cells; host or cells: OCI-LY10
T1 sequence (Q9NWZ3 1-460): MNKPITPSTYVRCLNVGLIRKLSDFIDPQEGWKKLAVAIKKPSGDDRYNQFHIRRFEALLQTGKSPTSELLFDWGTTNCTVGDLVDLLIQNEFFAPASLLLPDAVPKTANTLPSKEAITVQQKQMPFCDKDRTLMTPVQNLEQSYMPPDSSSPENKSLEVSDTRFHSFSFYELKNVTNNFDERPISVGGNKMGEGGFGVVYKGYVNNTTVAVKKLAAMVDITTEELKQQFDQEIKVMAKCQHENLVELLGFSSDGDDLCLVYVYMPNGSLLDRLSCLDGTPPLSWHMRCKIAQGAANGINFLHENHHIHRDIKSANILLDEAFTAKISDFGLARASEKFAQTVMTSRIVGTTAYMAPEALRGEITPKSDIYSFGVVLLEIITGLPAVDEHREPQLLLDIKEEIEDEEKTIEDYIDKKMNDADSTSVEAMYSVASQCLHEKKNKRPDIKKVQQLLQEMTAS
Assay: IRAK4 MSD Degradation in OCI-LY10
Type: cell-based
Conditions: OCI-LY10 cells, 4 hrs incubation, read-out: IRAK4 degradation in OCI-LY10 at 4 hrs: DC50
Method in brief: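 OCI-LY10 cells treated with 8-dose, 1:3 dilution series (top final 1 to 10 μM) for 4 to 24 h at 37 °C, 5% CO2. Lysate IRAK4 quantified by MSD sandwich immunoassay (mouse 2H9 capture, rabbit Y279 detection, SULFO-TAG anti-rabbit); DC50 from three-parameter logistic fit.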

Row | SMILES | DC50
1 | Cn1c(=O)n(C2CCC(=O)NC2=O)c2cccc(CCN3CCN(C[C@H]4CC[C@H](n5cc6cc(NC(=O)c7cccc(C(F)(F)F)n7)c(C(C)(C)O)cc6n5)CC4)CC3)c21 (stereo partly drawn) [I-146] | < 50 nM
2 | CN(CC#Cc1ccc2c(c1)n(C)c(=O)n2C1CCC(=O)NC1=O)C[C@H]1CC[C@H](n2cc3cc(NC(=O)c4cccc(C(F)(F)F)n4)c(C(F)F)cc3n2)CC1 (stereo partly drawn) [I-148] | 500 to 1000 nM
3 | Cn1c(=O)n(C2CCC(=O)NC2=O)c2ccc(N3CCN(C[C@H]4CC[C@H](n5cc6cc(NC(=O)c7cccc(C(F)(F)F)n7)c(C(F)F)cc6n5)CC4)CC3)cc21 (stereo partly drawn) [I-149] | < 50 nM
4 | Cn1c(=O)n(C2CCC(=O)NC2=O)c2cccc(C[C@H]3C[C@]4(CC[C@@H](N(C)C[C@H]5CC[C@H](n6cc7cc(NC(=O)c8cccc(C(F)(F)F)n8)c(C(F)F)cc7n6)CC5)CC4)C3)c21 (stereo partly drawn) [I-151] | 50 to 100 nM
5 | Cn1c(=O)n(C2CCC(=O)NC2=O)c2cccc(NC3CC4(CCN(C[C@H]5CC[C@H](n6cc7cc(NC(=O)c8cccc(C(F)(F)F)n8)c(C(C)(C)O)cc7n6)CC5)CC4)C3)c21 (stereo partly drawn) [I-153] | < 50 nM
6 | Cn1c(=O)n(C2CCC(=O)NC2=O)c2cccc(CCCC3CCN(C[C@H]4CC[C@H](n5cc6cc(NC(=O)c7cccc(C(F)(F)F)n7)c(N7C[C@@H]8C[C@H]7CO8)cc6n5)CC4)CC3)c21 (stereo partly drawn) [I-154] | 50 to 100 nM
7 | COc1cc2nn([C@H]3CC[C@H](CN4CCN(c5ccc6c(c5)n(C)c(=O)n6C5CCC(=O)NC5=O)CC4)CC3)cc2cc1NC(=O)c1cccc(C(C)(C)F)n1 (stereo partly drawn) [I-156] | 50 to 100 nM
8 | COc1cc2nn([C@H]3CC[C@H](CN4CCC(CCCc5cccc6c5n(C)c(=O)n6C5CCC(=O)NC5=O)CC4)CC3)cc2cc1NC(=O)c1cnn2cccnc12 (stereo partly drawn) [I-158] | < 50 nM
9 | COc1cc2nn([C@H]3CC[C@H](CN4CCC5(CC4)CC(CNc4cccc6c4n(C)c(=O)n6C4CCC(=O)NC4=O)C5)CC3)cc2cc1NC(=O)c1cccc(C(F)(F)F)n1 (stereo partly drawn) [I-163] | 50 to 100 nM
10 | COc1cc2nn([C@H]3CC[C@H](CN4CCN(c5cccc6c5n(C)c(=O)n6C5CCC(=O)NC5=O)CC4)CC3)cc2cc1NC(=O)c1cccc(C(C)(C)F)n1 (stereo partly drawn) [I-167] | 50 to 100 nM
11 | COc1cc2nn([C@H]3CC[C@H](CN4CCN(c5cccc6c5n(C)c(=O)n6C5CCC(=O)NC5=O)CC4)CC3)cc2cc1NC(=O)c1cccc(C(F)(F)F)n1 (stereo partly drawn) [I-171] | < 50 nM
12 | Cn1c(=O)n(C2CCC(=O)NC2=O)c2cccc(N3CCN(C[C@H]4CC[C@H](n5cc6cc(NC(=O)c7cccc(C(F)(F)F)n7)c(C(C)(C)O)cc6n5)CC4)CC3)c21 (stereo partly drawn) [I-172] | < 50 nM

Other lines, results leading:

Row | DC50 | SMILES
13 | < 50 nM | Cn1c(=O)n(C2CCC(=O)NC2=O)c2cccc(OCC3CCN(C[C@H]4CC[C@H](n5cc6cc(NC(=O)c7cccc(C(F)(F)F)n7)c(C(C)(C)O)cc6n5)CC4)CC3)c21 (stereo partly drawn) [I-132]
14 | < 50 nM | COc1cc2nn([C@H]3CC[C@H](CN4[C@@H]5CC[C@H]4CN(CCc4cccc6c4n(C)c(=O)n6C4CCC(=O)NC4=O)C5)CC3)cc2cc1NC(=O)c1cccc(C(F)(F)F)n1 (stereo partly drawn) [I-133]
15 | 50 to 100 nM | COc1cc2nn([C@H]3CC[C@H](CN(C)CC#Cc4cccc5c4n(C)c(=O)n5C4CCC(=O)NC4=O)CC3)cc2cc1NC(=O)c1cccc(C(F)(F)F)n1 (stereo partly drawn) [I-134]
16 | 50 to 100 nM | Cn1c(=O)n(C2CCC(=O)NC2=O)c2cccc(CCCC3CCN(C[C@H]4CC[C@H](n5cc6cc(NC(=O)c7cccc(C(F)(F)F)n7)c(N7CCOCC7)cc6n5)CC4)CC3)c21 (stereo partly drawn) [I-135]
17 | < 50 nM | COc1cc2nn([C@H]3CC[C@H](CN4CCC(CCNc5cccc6c5n(C)c(=O)n6C5CCC(=O)NC5=O)CC4)CC3)cc2cc1NC(=O)c1ccc(F)c(C)n1 (stereo partly drawn) [I-144]
18 | 50 to 100 nM | COc1cc2nn([C@H]3CC[C@H](CN4CCC(CCCc5ccc6c(c5)n(C)c(=O)n6C5CCC(=O)NC5=O)CC4)CC3)cc2cc1NC(=O)c1cccc(C(F)(F)F)n1 (stereo partly drawn) [I-145]
19 | 500 to 1000 nM | Cn1c(=O)n(C2CCC(=O)NC2=O)c2cccc(NC[C@H]3CC[C@H](n4cc5cc(NC(=O)c6cccc(C(F)(F)F)n6)c(C(C)(C)O)cc5n4)CC3)c21 (stereo partly drawn) [I-147, N-[2-[4-[[[1-(2,6-dioxo-3-piperidyl)-3-methyl-2-oxo-benzimidazol-4-yl]amino]methyl]cyclohexyl]-6-(1-hydroxy-1-methyl-ethyl)indazol-5-yl]-6-(trifluoromethyl)pyridine-2-carboxamide]
20 | 500 to 1000 nM | COc1cc2nn([C@H]3CC[C@H](CNc4cccc5c4n(C)c(=O)n5C4CCC(=O)NC4=O)CC3)cc2cc1NC(=O)c1cccc(C(F)(F)F)n1 (stereo partly drawn) [I-150]
21 | 50 to 100 nM | COc1cc2nn([C@H]3CC[C@H](CN(C)[C@H]4CC[C@@]5(CC4)C[C@@H](Cc4cccc6c4n(C)c(=O)n6C4CCC(=O)NC4=O)C5)CC3)cc2cc1NC(=O)c1cccc(C(F)(F)F)n1 (stereo partly drawn) [I-152]
22 | < 50 nM | Cn1c(=O)n(C2CCC(=O)NC2=O)c2cccc(C[C@H]3C[C@@]4(CC[C@@H](N(C)C[C@H]5CC[C@H](n6cc7cc(NC(=O)c8cccc(C(F)(F)F)n8)c(C(F)F)cc7n6)CC5)CC4)C3)c21 (stereo partly drawn) [I-155]
23 | 50 to 100 nM | Cn1c(=O)n(C2CCC(=O)NC2=O)c2ccc(N3CCN(C[C@H]4CC[C@H](n5cc6cc(NC(=O)c7cccc(C(C)(C)F)n7)c(C(F)F)cc6n5)CC4)CC3)cc21 (stereo partly drawn) [I-157]
24 | 50 to 100 nM | COc1cc2nn([C@H]3CC[C@H](CN(C)[C@H]4CC[C@]5(CC4)C[C@@H](Cc4cccc6c4n(C)c(=O)n6C4CCC(=O)NC4=O)C5)CC3)cc2cc1NC(=O)c1cccc(C(F)(F)F)n1 (stereo partly drawn) [I-160]
25 | < 50 nM | COc1cc2nn([C@H]3CC[C@H](CN4CCC5(CC4)CC(Nc4cccc6c4n(C)c(=O)n6C4CCC(=O)NC4=O)C5)CC3)cc2cc1NC(=O)c1cccc(C(F)(F)F)n1 (stereo partly drawn) [I-162]
26 | < 50 nM | Cn1c(=O)n(C2CCC(=O)NC2=O)c2cccc(NCC3CC4(CCN(C[C@H]5CC[C@H](n6cc7cc(NC(=O)c8cccc(C(F)(F)F)n8)c(C(C)(C)O)cc7n6)CC5)CC4)C3)c21 (stereo partly drawn) [I-166]
27 | < 50 nM | CN(C[C@H]1CC[C@H](n2cc3cc(NC(=O)c4cccc(C(F)(F)F)n4)c(C(F)F)cc3n2)CC1)C1CCN(c2cccc3c2n(C)c(=O)n3C2CCC(=O)NC2=O)CC1 (stereo partly drawn) [I-168]
28 | 50 to 100 nM | Cn1c(=O)n(C2CCC(=O)NC2=O)c2cccc(N3CCN(C[C@H]4CC[C@H](n5cc6cc(NC(=O)c7cccc(C(F)(F)F)n7)c(OC(F)(F)F)cc6n5)CC4)CC3)c21 (stereo partly drawn) [I-169]

Same assay, conditions: OCI-LY10 cells, 24 hrs incubation, read-out: IRAK4 degradation in OCI-LY10 at 24 hrs: DC50

Row | SMILES | DC50
29 | COc1cc2nn([C@H]3CC[C@H](CN4CCC5(CC4)CC(CNc4cccc6c4C(=O)N([C@H]4CCC(=O)NC4=O)C6=O)C5)CC3)cc2cc1NC(=O)c1cccc(C(F)(F)F)n1 [I-131, N-[2-[4-[[2-[[[2-[(3S)-2,6-dioxo-3-piperidyl]-1,3-dioxo-isoindolin-4-yl]amino]methyl]-7-azaspiro[3.5]nonan-7-yl]methyl]cyclohexyl]-6-methoxy-indazol-5-yl]-6-(trifluoromethyl)pyridine-2-carboxamide] | 50 to 100 nM
30 | O=C1CCC(N2C(=O)c3cccc(NCCC4CC5(CCN(C[C@H]6CC[C@H](n7cc8cc(NC(=O)c9cccc(C(F)(F)F)n9)c(OC(F)(F)F)cc8n7)CC6)CC5)C4)c3C2=O)C(=O)N1 (stereo partly drawn) [I-141] | 50 to 100 nM
31 | O=C1CCC(N2C(=O)c3cccc(NCCC4CC5(CCN(C[C@H]6CC[C@H](n7cc8cc(NC(=O)c9cccc(C(F)(F)F)n9)c(OC9CC9)cc8n7)CC6)CC5)C4)c3C2=O)C(=O)N1 (stereo partly drawn) [I-159] | < 50 nM
32 | CN(CCCO[C@H]1C[C@H](Nc2cccc3c2C(=O)N(C2CCC(=O)NC2=O)C3=O)C1)C[C@@]1(C)Cc2cc(NC(=O)c3cnn4cccnc34)c(N3CCOCC3)cc2O1 (stereo partly drawn) [I-161, N-[(2R)-2-[[3-[3-[[2-(2,6-dioxo-3-piperidyl)-1,3-dioxo-isoindolin-4-yl]amino]cyclobutoxy]propyl-methyl-amino]methyl]-2-methyl-6-morpholino-3H-benzofuran-5-yl]pyrazolo[1,5-a]pyrimidine-3-carboxamide] | 500 to 1000 nM

Other lines, results leading:

Row | DC50 | SMILES
33 | 50 to 100 nM | COc1cc2nn([C@H]3CC[C@H](CN4CCC5(CC4)CC(CCNc4cccc6c4C(=O)N(C4CCC(=O)NC4=O)C6=O)C5)CC3)c(C)c2cc1NC(=O)c1cccc(C(F)(F)F)n1 (stereo partly drawn) [I-136]
34 | 100 to 500 nM | COc1cc2nc([C@H]3CC[C@H](CN4CCC5(CC4)CC(CCNc4cccc6c4C(=O)N(C4CCC(=O)NC4=O)C6=O)C5)CC3)oc2cc1NC(=O)c1cccc(C(F)(F)F)n1 (stereo partly drawn) [I-137]
35 | 50 to 100 nM | CC(C)(O)COc1cc2nn([C@H]3CC[C@H](CN4CCC5(CC4)CC(CNc4cccc6c4C(=O)N(C4CCC(=O)NC4=O)C6=O)C5)CC3)cc2cc1NC(=O)c1cccc(C(F)(F)F)n1 (stereo partly drawn) [I-138]
36 | < 50 nM | COc1cc2nn([C@H]3CC[C@H](CN4CCC5(CC4)CC(CCNc4cccc6c4C(=O)N(C4CCC(=O)NC4=O)C6=O)C5)CC3)cc2cc1NC(=O)c1cnn2cccnc12 (stereo partly drawn) [I-139]
37 | 50 to 100 nM | COc1cc2nn([C@H]3CC[C@H](CN4CCC(CO[C@H]5C[C@H](Nc6cccc7c6C(=O)N(C6CCC(=O)NC6=O)C7=O)C5)CC4)CC3)cc2cc1NC(=O)c1cccc(C(C)(C)F)n1 (stereo partly drawn) [I-140]
38 | 500 to 1000 nM | COc1cc2nn([C@H]3CC[C@H](CN4CCC5(CC4)CC(CCNc4cccc6c4C(=O)N(C4CCC(=O)NC4=O)C6=O)C5)CC3)cc2cc1NC(=O)[C@H]1CCCCO1 (stereo partly drawn) [I-142]
39 | 500 to 1000 nM | COc1cc2nn([C@H]3CC[C@H](CN4CCC5(CC4)CC(CCNc4cccc6c4C(=O)N(C4CCC(=O)NC4=O)C6=O)C5)CC3)cc2cc1NC(=O)[C@@H]1CCCCN1 (stereo partly drawn) [I-143]
